Patent US12715896B2 (priority 2020, dated 2026)
Non-standard residues stand in square brackets, D forms with d. Residues, ends and D or L forms follow the SMILES beside them. ξ: configuration not given here. *: point of attachment. Nle = CCCC[C@H](N)C(=O)O; Nva = CCC[C@H](N)C(=O)O; Cbz = O=C(OCc1ccccc1)*; ξI = CCC(C)C(N)C(=O)O; OtBu = CC(C)(C)O*

How the values were obtained:
[1] = biological target: EV-A71 3C protease (Human enterovirus 71, UniProt Q66478); assay: biochemical
[2] = biological target: EV-A71 2A protease (Human enterovirus 71, UniProt Q66478); assay: biochemical; settings: for IC50: read-out: EVA71 2A IC50
[3] = test system: SARS-CoV-2; assay: Antiviral CPE assay against SARS-CoV-2; assay type: cell-based; settings: Severe acute respiratory syndrome coronavirus 2
[4] = Antiviral CPE assay against SARS-CoV-2; assay type: cell-based
[5] = Cytotoxicity CPE assay (neutral red), Caco-2; assay type: cell-based; settings: human, Caco-2 cells, mean ± S.E.
[6] = Cytotoxicity CPE assay (neutral red), MDCK; assay type: cell-based; settings: dog, MDCK cells, mean ± S.E.
[7] = test system: MERS-CoV; assay: microbe, parasite or virus in culture; settings: Middle East respiratory syndrome-related coronavirus, read-out: EC50 against MERS-CoV
[8] = Cytotoxicity CPE assay (neutral red), A549; assay type: cell-based; settings: human, A549 cells, mean ± S.E.
[9] = Cytotoxicity CPE assay (neutral red), HCT-8; assay type: cell-based; settings: human, HCT-8 cells, mean ± S.E.
[10] = in vitro
[11] = Cytotoxicity CPE assay (neutral red), Vero; assay type: cell-based; settings: African green monkey, Vero cells, mean ± S.E.
[12] = Cellular cytotoxicity in multiple cell lines; settings: human, dog, African green monkey
[13] = test system: A/California/07/2009 (H1N1); assay: Counter screening against influenza virus in plaque assay; assay type: cell-based; settings: read-out: Antiviral activity against A/California/07/2009 (H1N1)
[14] = Cytotoxicity CPE assay (neutral red), BEAS2B; assay type: cell-based; settings: human, BEAS2B cells, mean ± S.E.
[15] = in vitro; remark: listed apart in the source
[16] = test system: SARS-CoV; assay: microbe, parasite or virus in culture; settings: Severe acute respiratory syndrome coronavirus, read-out: EC50 against SARS-CoV
[17] = biological target: SARS-CoV 3CL^pro (Severe acute respiratory syndrome coronavirus, UniProt P0C6X7); settings: read-out: IC50 against the SARS-CoV 3CL^pro; cited from earlier work

Chain of EV-A71 3C protease (Q66478 1549-1731): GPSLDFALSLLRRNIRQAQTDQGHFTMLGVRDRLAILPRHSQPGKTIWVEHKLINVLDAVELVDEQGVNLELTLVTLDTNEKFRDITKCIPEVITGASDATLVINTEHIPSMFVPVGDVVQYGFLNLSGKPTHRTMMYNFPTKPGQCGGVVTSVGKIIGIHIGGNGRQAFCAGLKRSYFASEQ
Chain of EV-A71 2A protease (Q66478 863-1012): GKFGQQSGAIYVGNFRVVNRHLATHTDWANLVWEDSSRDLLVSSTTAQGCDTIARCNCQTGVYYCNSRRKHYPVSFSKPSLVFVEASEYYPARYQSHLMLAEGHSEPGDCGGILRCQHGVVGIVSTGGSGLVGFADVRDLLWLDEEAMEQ

SMILES: CCC(C)C(NC(=O)OCc1ccccc1)C(=O)N[C@@H](CCC(=O)OC(C)(C)C)C(=O)N[C@@H](C)C(=O)N[C@H](C=O)CC(C)C (some centres unmarked) [PSI (63), PSI] (Cbz-[ξI]E(OtBu)AL-aldehyde)
- IC50 [1]: 13.7 ± 3.86 µM
- IC50 [2]: 1.22 µM

SMILES: CSCC[C@@H](C=O)NC(=O)[C@H](CC(C)C)NC(=O)[C@H](CC(C)C)NC(C)=O [Calpain inhibitor II (61), Calpain inhibitor II] (Ac-Leu-Leu-Met-aldehyde)
- EC50 [3]: 1.2 µM
- CC50 [4]: > 100 µM
- CC50 at 48 h [5]: > 100 µM
- CC50 at 48 h [6]: > 100 µM
- EC50 [7]: 14 µM
- CC50 at 48 h [8]: > 100 µM
- CC50 at 48 h [9]: > 100 µM
- IC50 [1]: > 20 µM
- CC50 [10]: > 100 µM
- CC50 at 48 h [11]: > 100 µM
- CC50 at 48 h [12]: > 100 µM
- EC50 [13]: > 20 µM
- IC50 [2]: > 20 µM
- CC50 at 48 h [14]: > 100 µM
- CC50 [15]: > 100 µM
- EC50 [16]: 3.6 µM

SMILES: CCCC[C@@H](C=O)NC(=O)[C@H](CC(C)C)NC(=O)[C@H](CC(C)C)NC(C)=O [Calpain inhibitor 1 (ALLN) (59), Calpain inhibitor 1] (Ac-Leu-Leu-[Nle]-aldehyde)
- IC50 [1]: > 20 µM
- IC50 [2]: > 20 µM

SMILES: CCC[C@H](NC(=O)[C@H](CC(C)C)NC(=O)OCc1ccccc1)C(=O)C(=O)NCc1ccccn1 [Calpain inhibitor XII (62), Calpain inhibitor XII]
- EC50 [3]: 0.3 µM
- CC50 [4]: > 50 µM
- CC50 at 48 h [5]: 82.02 ± 0.37 µM
- CC50 at 48 h [6]: 60.4 ± 2.28 µM
- EC50 [7]: 7.9 µM
- CC50 at 48 h [8]: > 100 µM
- CC50 at 48 h [9]: 73.3 ± 11.8 µM
- IC50 [1]: > 20 µM
- CC50 at 48 h [11]: > 100 µM
- CC50 at 48 h [12]: > 50 µM
- EC50 [13]: > 20 µM
- IC50 [2]: > 20 µM
- CC50 at 48 h [14]: 78.9 ± 13.7 µM
- EC50 [16]: 7.4 µM

SMILES: CC(C)C[C@@H](C=O)NC(=O)[C@@H](NS(=O)(=O)c1ccc(F)cc1)C(C)C [Calpain inhibitor VI (58), Calpain inhibitor VI]
- IC50 [1]: > 20 µM

SMILES: CCC[C@@H](C=O)NC(=O)[C@H](CC(C)C)NC(=O)[C@H](CC(C)C)NC(=O)OCc1ccccc1 [MG-115 (60), MG-115] (Cbz-Leu-Leu-[Nva]-aldehyde)
- IC50 [1]: > 20 µM
- IC50 [2]: > 20 µM

SMILES: CCOC(=O)/C=C/[C@H](C[C@@H]1CCNC1=O)NC(=O)[C@@H](CC(=O)[C@@H](NC(=O)c1cc(C)on1)C(C)C)Cc1ccc(F)cc1 [Rupintrivir (65), Rupintrivir]
- IC50 [1]: 0.042 ± 0.014 µM
- inhibition against the EV-A71 3C protease [1]: potent inhibition
- IC50 [17]: > 100 µM
- activity against the EV-A71 2A protease [2]: not active
- IC50 [2]: > 20 µM

SMILES: CCCC[C@H](NC(=O)[C@@H]1[C@@H]2[C@H](CN1C(=O)[C@@H](NC(=O)NC1(CS(=O)(=O)C(C)(C)C)CCCCC1)C(C)(C)C)C2(C)C)C(=O)C(=O)NC1CC1 [Narlaprevir (29), Narlaprevir]
- IC50 [1]: > 20 µM
- IC50 [2]: > 20 µM

SMILES: CC(C)C[C@H](NC(=O)OCc1ccccc1)C(=O)N[C@@H](C[C@@H]1CCNC1=O)C(O)S(=O)(=O)[O-].[Na+] (some centres unmarked) [GC-376 (64), GC-376]
- EC50 [3]: 1.9 µM
- CC50 [4]: > 100 µM
- CC50 at 48 h [5]: > 100 µM
- CC50 at 48 h [6]: > 100 µM
- CC50 at 48 h [8]: > 100 µM
- CC50 at 48 h [9]: > 100 µM
- IC50 [1]: 0.136 ± 0.025 µM
- inhibition against the EV-A71 3C protease [1]: potent inhibition
- CC50 [10]: > 100 µM
- CC50 at 48 h [11]: > 100 µM
- CC50 at 48 h [12]: > 100 µM
- EC50 [13]: > 20 µM
- activity against the EV-A71 2A protease [2]: not active
- IC50 [2]: > 20 µM
- CC50 at 48 h [14]: > 100 µM
- CC50 [15]: > 100 µM

SMILES: CCCC[C@@H](C=O)NC(=O)[C@H](CC(C)C)NC(=O)OCc1ccccc1 [Calpeptin (56), Calpeptin]
- IC50 [1]: > 20 µM
- IC50 [2]: > 20 µM

SMILES: CC(C)C[C@@H](C=O)NC(=O)[C@H](CC(C)C)NC(=O)[C@H](CC(C)C)NC(=O)OCc1ccccc1 [MG-132 (43), MG-132] (Cbz-Leu-Leu-Leu-aldehyde)
- EC50 [3]: 0.87 µM
- EC50 [7]: > 10 µM
- IC50 [1]: > 20 µM
- CC50 [10]: > 0.7 µM
- IC50 [2]: > 20 µM
- EC50 [16]: > 0.7 µM

SMILES: CC(C)(C)NC(=O)N[C@H](C(=O)N1C[C@H]2[C@@H]([C@H]1C(=O)NC(CC1CCC1)C(=O)C(N)=O)C2(C)C)C(C)(C)C (some centres unmarked) [Boceprevir (28), Boceprevir]
- EC50 [3]: 1.9 µM
- EC50 [7]: > 100 µM
- IC50 [1]: > 20 µM
- CC50 [10]: > 47 µM
- EC50 [13]: > 20 µM
- IC50 [2]: > 20 µM
- EC50 [16]: > 47 µM
